According to US20250161476A1 (REGENERON PHARMACEUTICALS, INC., priority 2020, published 2025):
Where a SMILES comes first, the peptide text is derived from it. [ ]: non-standard residue; d: D form. The star is where a group is joined. Bip(2'-Et,4'-O(CH2)4NH2) = CCc1cc(OCCCCN)ccc1-c1ccc(C[C@H](N)C(=O)O)cc1; Malonyl(2,2-Me2,histaminyl) = CC(C)(C(=O)NCCc1cnc[nH]1)C(=O)*; Nva(5-(3,5-Me2Ph)) = Cc1cc(C)cc(CCC[C@H](N)C(=O)O)c1; Ala(1H-tetrazol-5-yl) = N[C@@H](Cc1nnn[nH]1)C(=O)O; αMePhe(2-F) = C[C@](N)(Cc1ccccc1F)C(=O)O; Desaminohistidyl = O=C(CCc1c[nH]cn1)*; X1 = O=C(CCCCCc1cnc[nH]1)*; NHPh = c1ccc(N*)cc1

Columns and labels:
[1] = target: human glucagon-like peptide 2 receptor (GLP2R) (Homo sapiens (Human), UniProt O95838); test: CRE-luciferase reporter bioassay, HEK293/Myc-hGLP2R/Cre-Luc cell line; assay type: cell-based; conditions: HEK293/Myc-hGLP2R/Cre-Luc
Procedure: Cells were incubated overnight at 37° C. in 5% CO2. […] Plates were incubated for 5.5 h at 37° C. in 5% CO2. For end-point measurement, 100 μL/well of One-Glo reagent (Promega, #E6051) was added and plates were kept at room temperature for 5-10 minutes. Luciferase activity was measured on Envision Multilabel Plate Reader (Perkin Elmer) in Luminescent mode. The relative light units (RLU) values were obtained and the results were analyzed using nonlinear regression with GraphPad Prism software (GraphPad).

[2] = Plasma stability of payloads and linker-payloads, human plasma; assay type: in vitro ADME; conditions: for half-life at 2 µM: human, pooled plasma, pH 7.4, payload properties table, species not given, read-out: Plasma stability t½ (converted)
Procedure: The plasma stability of payloads and linker payloads of the disclosure were measured. For the assay, pooled frozen plasma (human, mouse or monkey) was thawed in cold water or a 37° C. water bath prior to experiment. Plasma was centrifuged at 4000 rpm for 5 min if any clots were observed, they were subsequently removed. If required, the pH was adjusted to 7.4±0.1. For the preparation of compounds and positive controls, a 1 mM intermediate solution was prepared by diluting 10 μL of their stock solution with 90 μL DMSO; a 1 mM intermediate solution of the positive control (Propantheline) was prepared by diluting 10 μL of its stock solution with 90 μL ultrapure water. […] 98 μL of plasma was spiked with 2 μL of dosing solution (100 μM) to achieve the final concentration of 2 μM in duplicate. Samples were then incubated at 37° C. in a water bath. […] At each time point, 400 μL of stop solution (200 ng/mL tolbutamide plus 200 ng/mL labetalol in 50% ACN/MeOH) was added to precipitate protein and mixed thoroughly. Sample plates were then centrifuged at 4,000 rpm for 10 min. An aliquot of supernatant (50 μL) was transferred from each well and mixed with 100 μL ultra-pure water. The samples were then shaken at 800 rpm for approximately 10 min before submitting for LC-MS/MS analysis.

human GLP1R = human GLP1R (Homo sapiens (Human), UniProt P43220); test: cAMP responsive luciferase reporter assay, HEK293/CRE-Luc/hGLP1R cells; assay type: cell-based; conditions: for HEK293/CRE-LUC/hGLP1R S/N: highest RLU / RLU of untreated wells; for HEK293/CRE-LUC/hGLP1R Relative Potency (% P8 EC50) / HEK293/CRE-LUC/hGLP1R Relative Signal:Noise (% P8): relative to P8 of the same experiment
Source text: (§1) To test the activity of GLP1R agonist payloads, GLP1R agonist linker-payloads (LPs), and anti-GLP1R antibody tethered drug conjugates (ATDCs) of the disclosure, a cell-based cAMP responsive luciferase reporter assay was developed. To generate the assay cell line, the firefly luciferase gene was placed under the control of a cAMP response element (CRE) located upstream of a minimal promoter and transfected into HEK293 cells and referred to herein as HEK293/CRE-Luc cells.
(§2) Three-fold serial dilutions of free payloads or LPs were prepared in 100% DMSO, transferred to fresh assay media, and added to the cells at a final constant DMSO concentration of 0.2%. The last well in the plate served as a blank control containing only the assay media and 0.2% DMSO (untreated well) and was plotted as a continuation of the 3-fold serial dilution. Four to six hours later, luciferase activity was determined after the addition of One-Glo™ reagent (Promega, Cat #E6130) to each well. Relative light units (RLUs) were measured on an Envision luminometer (PerkinElmer) and EC50 values were determined using a four-parameter logistic equation over a 12-point dose response curve (GraphPad Prism). The signal to noise (S/N) was determined by taking the ratio of the highest RLU on the dose response curve to the RLU in the untreated wells.
GLP1R agonist linker payloads were conjugated to anti-hGLP1R antibodies via N-terminal heavy or light chain Q tags. Several resulting anti-GLP1R antibody tethered drug conjugates (ATDCs) were tested for activity in the HEK293/CRE-Luc/hGLP1R reporter assay as described above for the free GLP1R payload and linker-payload agonists.

HEK293/CRE-Luc cells = test: cAMP responsive luciferase reporter assay, HEK293/CRE-Luc cells (no hGLP1R expression); assay type: cell-based, human
Source text: as §1, §2

human GLP1R, sequence (P43220 24-463): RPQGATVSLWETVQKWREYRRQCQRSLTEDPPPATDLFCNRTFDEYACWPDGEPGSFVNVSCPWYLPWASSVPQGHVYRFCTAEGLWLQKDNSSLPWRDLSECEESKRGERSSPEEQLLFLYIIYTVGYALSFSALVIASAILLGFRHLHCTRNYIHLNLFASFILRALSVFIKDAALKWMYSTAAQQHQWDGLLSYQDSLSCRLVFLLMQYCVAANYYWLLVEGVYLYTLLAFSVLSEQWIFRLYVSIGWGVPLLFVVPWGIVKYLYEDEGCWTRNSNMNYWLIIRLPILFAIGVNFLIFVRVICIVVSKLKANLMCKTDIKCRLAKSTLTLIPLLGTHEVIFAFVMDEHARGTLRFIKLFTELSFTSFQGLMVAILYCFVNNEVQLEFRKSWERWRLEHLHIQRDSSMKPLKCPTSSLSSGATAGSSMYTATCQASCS
human glucagon-like peptide 2 receptor (GLP2R), sequence (O95838 whole entry): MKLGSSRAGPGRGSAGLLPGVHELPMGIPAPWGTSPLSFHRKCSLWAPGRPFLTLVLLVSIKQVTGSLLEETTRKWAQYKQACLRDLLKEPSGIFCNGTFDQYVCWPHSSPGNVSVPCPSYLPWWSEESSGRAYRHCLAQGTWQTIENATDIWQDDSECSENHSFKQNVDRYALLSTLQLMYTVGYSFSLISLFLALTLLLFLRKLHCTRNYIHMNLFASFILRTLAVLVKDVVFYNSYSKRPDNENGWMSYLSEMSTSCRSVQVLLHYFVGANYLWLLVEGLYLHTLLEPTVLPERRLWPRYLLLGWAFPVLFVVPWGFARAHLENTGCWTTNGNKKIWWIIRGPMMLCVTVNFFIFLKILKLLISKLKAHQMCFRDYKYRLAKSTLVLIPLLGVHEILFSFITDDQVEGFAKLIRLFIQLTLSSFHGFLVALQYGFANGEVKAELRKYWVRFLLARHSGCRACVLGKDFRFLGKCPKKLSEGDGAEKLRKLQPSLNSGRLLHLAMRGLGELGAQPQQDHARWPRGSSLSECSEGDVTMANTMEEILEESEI

SMILES	CRE-dependent reporter activity [1]	Human plasma stability assay T½ ([2]; tested for 1 day (A))	half-life at 2 µM [2]	HEK293/CRE-LUC/hGLP1R S/N (human GLP1R)	HEK293/CRE-LUC/hGLP1R Relative Potency (% P8 EC50) (human GLP1R)	HEK293/CRE-LUC/hGLP1R Relative Signal:Noise (% P8) (human GLP1R)	EC50 (HEK293/CRE-Luc cells)	HEK293/CRE-LUC S/N (HEK293/CRE-Luc cells)	Human plasma stability assay T½ ([2]; tested for 2 hrs (B))	Human plasma stability assay T½ ([2]; tested for 3 days (C))
CC[C@H](C)[C@H](NC(=O)[C@H](Cc1ccccc1)NC(=O)[C@H](CC(=O)O)NC(=O)[C@H](CCCNC(=N)N)NC(=O)[C@H](C)NC(=O)[C@H](C)NC(=O)[C@H](CC(C)C)NC(=O)[C@H](CC(N)=O)NC(=O)[C@H](CC(=O)O)NC(=O)[C@H](CC(C)C)NC(=O)[C@@H](NC(=O)[C@@H](NC(=O)[C@H](CC(N)=O)NC(=O)[C@H](CCSC)NC(=O)[C@H](CCC(=O)O)NC(=O)[C@H](CC(=O)O)NC(=O)[C@H](CO)NC(=O)[C@H](Cc1ccccc1)NC(=O)[C@H](CO)NC(=O)CNC(=O)[C@H](CC(=O)O)NC(=O)[C@H](C)NC(=O)[C@@H](N)Cc1c[nH]cn1)[C@@H](C)O)[C@@H](C)CC)C(=O)N[C@@H](CC(N)=O)C(=O)N[C@@H](Cc1c[nH]c2ccccc12)C(=O)N[C@@H](CC(C)C)C(=O)N[C@H](C(=O)N[C@@H](CCC(N)=O)C(=O)N[C@H](C(=O)N[C@@H](CCCCN)C(=O)N[C@H](C(=O)N[C@H](C(=O)N[C@@H](CC(=O)O)C(=O)O)[C@@H](C)O)[C@@H](C)CC)[C@@H](C)O)[C@@H](C)CC [GLP2, reference compound]	activated individual cell lines as expected	–	–	–	–	–	–	–	–	–
CCc1cc(OCCCCN)ccc1-c1ccc(C[C@H](NC(=O)[C@H](CC(=O)O)NC(=O)[C@H](CO)NC(=O)[C@@H](NC(=O)[C@](C)(Cc2ccccc2F)NC(=O)[C@@H](NC(=O)CNC(=O)[C@H](Cc2nn[nH]n2)NC(=O)C(C)(C)C(=O)NCCc2cnc[nH]2)[C@@H](C)O)[C@@H](C)O)C(=O)N[C@@H](CCCc2cc(C)cc(C)c2)C(N)=O)cc1 [P9, (8S,14S,17S,20S,23S,26S)-8-((2H-tetrazol-5-yl)methyl)-26-(((S)-1-(((S)-1-amino-5-(3,5-dimethylphenyl)-1-oxopentan-2-yl)amino)-3-(4′-(4-aminobutoxy)-2′-ethyl-[1,1′-biphenyl]-4-yl)-1-oxopropan-2-yl)carbamoyl)-17-(2-fluorobenzyl)-14,20-bis((R)-1-hydroxyethyl)-23-(hydroxymethyl)-1-(1H-imidazol-5-yl)-5,5,17-trimethyl-4,6,9,12,15,18,21,24-octaoxo-3,7,10,13, 16,19,22,25-octaazaoctacosan-28-oic acid] ({Malonyl(2,2-Me2,histaminyl)}-[Ala(1H-tetrazol-5-yl)]GT[αMePhe(2-F)]TSD[Bip(2'-Et,4'-O(CH2)4NH2)][Nva(5-(3,5-Me2Ph))]-NH2)	–	>57.81 h	> 3470 min	75.2	133.8%	114.3%	> 200 nM	1.3	–	–
CCc1cc(OCCCCN)ccc1-c1ccc(C[C@H](NC(=O)[C@H](CC(=O)O)NC(=O)[C@H](CO)NC(=O)[C@@H](NC(=O)[C@](C)(Cc2ccccc2F)NC(=O)[C@@H](NC(=O)CNC(=O)[C@H](Cc2nn[nH]n2)NC(=O)[C@H](C)NC(=O)[C@@H](N)Cc2cnc[nH]2)[C@@H](C)O)[C@@H](C)O)C(=O)N[C@@H](CCCc2cc(C)cc(C)c2)C(N)=O)cc1 [P10] (H-HA[Ala(1H-tetrazol-5-yl)]GT[αMePhe(2-F)]TSD[Bip(2'-Et,4'-O(CH2)4NH2)][Nva(5-(3,5-Me2Ph))]-NH2)	–	–	108 min	45.1	38.0%	68.6%	> 200 nM	1.2	1.83 h	–
CCc1cc(OCCCCN)ccc1-c1ccc(C[C@H](NC(=O)[C@H](CC(=O)O)NC(=O)[C@H](CO)NC(=O)[C@@H](NC(=O)[C@](C)(Cc2ccccc2F)NC(=O)[C@@H](NC(=O)CNC(=O)[C@H](Cc2nn[nH]n2)NC(=O)CCCCCc2cnc[nH]2)[C@@H](C)O)[C@@H](C)O)C(=O)N[C@@H](CCCc2cc(C)cc(C)c2)C(N)=O)cc1 [P11] (X1-[Ala(1H-tetrazol-5-yl)]GT[αMePhe(2-F)]TSD[Bip(2'-Et,4'-O(CH2)4NH2)][Nva(5-(3,5-Me2Ph))]-NH2)	–	>57.81 h	> 3470 min	54.8	0.8%	83.4%	> 200 nM	1.1	–	–
CCc1cc(OCCCCN)ccc1-c1ccc(C[C@H](NC(=O)[C@H](CC(=O)O)NC(=O)[C@H](CO)NC(=O)[C@@H](NC(=O)[C@](C)(Cc2ccccc2F)NC(=O)[C@@H](NC(=O)CNC(=O)[C@H](Cc2nn[nH]n2)NC(=O)CNC(=O)CCc2c[nH]cn2)[C@@H](C)O)[C@@H](C)O)C(=O)N[C@@H](CCCc2cc(C)cc(C)c2)C(N)=O)cc1 [P12] (Desaminohistidyl-G[Ala(1H-tetrazol-5-yl)]GT[αMePhe(2-F)]TSD[Bip(2'-Et,4'-O(CH2)4NH2)][Nva(5-(3,5-Me2Ph))]-NH2)	–	>57.81 h	> 3470 min	76.4	46.5%	116.2%	> 200 nM	1.2	–	–
CCc1cc(OCCCCN)ccc1-c1ccc(C[C@H](NC(=O)[C@H](CC(=O)O)NC(=O)[C@H](CO)NC(=O)[C@@H](NC(=O)[C@](C)(Cc2ccccc2F)NC(=O)[C@@H](NC(=O)CNC(=O)[C@H](Cc2nn[nH]n2)NC(=O)[C@H](C)NC(=O)[C@H](Cc2c[nH]cn2)NC(=O)[C@@H](N)CCC(N)=O)[C@@H](C)O)[C@@H](C)O)C(=O)N[C@@H](CCCc2cc(C)cc(C)c2)C(N)=O)cc1 [P13] (H-QHA[Ala(1H-tetrazol-5-yl)]GT[αMePhe(2-F)]TSD[Bip(2'-Et,4'-O(CH2)4NH2)][Nva(5-(3,5-Me2Ph))]-NH2)	–	16.9 h	1010 min	69.5	1.5%	105.6%	> 200 nM	1.2	–	–
CCc1cc(OCCCCN)ccc1-c1ccc(C[C@H](NC(=O)[C@H](CC(=O)O)NC(=O)[C@H](CO)NC(=O)[C@@H](NC(=O)[C@](C)(Cc2ccccc2F)NC(=O)[C@@H](NC(=O)CNC(=O)[C@H](CCC(N)=O)NC(=O)C(C)(C)C(=O)NCCc2cnc[nH]2)[C@@H](C)O)[C@@H](C)O)C(=O)N[C@@H](CCCc2cc(C)cc(C)c2)C(N)=O)cc1 [P21]	–	–	> 3470 min	58.8	0.7%	89.5%	> 200 nM	1.3	–	>173.4 h
CCc1cc(OCCCCN)ccc1-c1ccc(C[C@H](NC(=O)[C@H](CC(=O)O)NC(=O)[C@H](CO)NC(=O)[C@@H](NC(=O)[C@](C)(Cc2ccccc2F)NC(=O)[C@@H](NC(=O)CNC(=O)[C@H](Cc2nn[nH]n2)NC(=O)C(C)(C)C(=O)NCCc2cnc[nH]2)[C@@H](C)O)[C@@H](C)O)C(=O)N[C@@H](CCCc2cc(C)cc(C)c2)C(=O)Nc2ccccc2)cc1 [P23] ({Malonyl(2,2-Me2,histaminyl)}-[Ala(1H-tetrazol-5-yl)]GT[αMePhe(2-F)]TSD[Bip(2'-Et,4'-O(CH2)4NH2)][Nva(5-(3,5-Me2Ph))]-NHPh)	–	–	–	57.1	103.0%	86.9%	> 200 nM	1.6	10.74 h	–
